Measurements reported in US20210156865A1, “METHODS FOR ASSESSING EFFICACY OF MALT1 INHIBITORS USING AN NF-KB TRANSLOCATION ASSAY” (Janssen Pharmaceutica NV, priority 2019, published 2021).

Tests used:
[1] = test system: NF-kB nuclear localization in B (CLL) cells; assay: NF-κB nuclear translocation in CLL B cells, overnight incubation, 6 h anti-IgM; format: cell-based, human; details: CLL PBMC; overnight compound; anti-IgM 6 hours
Description: Cells were then treated with anti-IgM or left untreated for 6 hours. After stimulation, PBMC were fixed using CytoFix buffer and permeabilized using 0.1% Triton X-100 solution. Cells were then stained with anti-CD19 to label B (CLL) cells, anti-CD4 and anti-CD8 to label T cells, Hoechst 33342 to label nuclei, and anti-p105/p50 to label NF-kB subunit. Samples were analyzed on ImageStreamX to evaluate NF-kB nuclear localization in B cells or T cells. […] Statistical significance was determined using Student's t-test in Microsoft Excel.

[2] = test system: peripheral blood of NHL patients; assay: Gene expression in whole blood of NHL patients (NanoString Pan-Cancer Immune Profiling); format: cell-based, human; details: 200 μM 24 hours, anti-CD3 and anti-CD28 four hours
Description: (§1) Peripheral blood was collected from three NHL and two CLL patients. […] Prior to stimulation and following stimulation, the treated blood was transferred into a PAXgene tube (Qiagen; Hilden, Germany) and RNA was extracted using the PAXgene RNA kit. Gene expression was measured using 100 ng of RNA extracted from the whole blood in the Pan-Cancer Immune Profiling kit (NanoString; Seattle, Wash.) according to the manufacturer's instructions.

[3] = test system: proteases, caspases, protein kinases, and G-protein-coupled receptors; assay: Binding inhibition panel at single dose; design: dose or concentration left out as unconfirmed
[4] = test system: purified T-cells and PBMCs from NHL patients; assay: Gene expression in T-cells and PBMCs purified from NHL blood without stimulation; format: cell-based, human; details: no stimulation, 24 hours
Description: Peripheral blood was collected from five NHL patients, and the peripheral blood was allowed to stand overnight. Then, the peripheral blood was treated for 24 hours with a MALT inhibitor or DMSO control. PBMCs were purified from the unstimulated blood using a ficoll density gradient and T-cells were purified using CD3 Beads (Miltenyi) using the manufacturers protocol. Purified cells were lysed in RLTplus (Qiagen) and RNA was extracted from the purified cells using an AllPrep kit (Qiagen). Gene expression was measured using 100 ng of RNA in the Pan-Cancer Immune Profiling kit (NanoString) according to the manufacturer's instructions. Gene expression signatures were compared between the MALT inhibitor treated and DMSO treated samples.

[5] = test system: purified T-cells and PBMCs from NHL patients; assay: IL2 expression in purified T-cells and PBMCs from NHL patients; format: cell-based, human; details: T-cells and PBMC of NHL blood; 24 hours; CD3 and CD28 six hours
Description: The effect of a MALT inhibitor was analyzed utilizing gene expression signatures from purified T-cells and PBMCs from Non-Hodgkin's lymphoma patients. Peripheral blood was collected from five NHL patients, and the peripheral blood was allowed to stand overnight. Then, the peripheral blood was treated for 24 hours with a MALT inhibitor or DMSO control. The blood was then stimulated with monoclonal antibodies against CD3 and CD28 for six hours. Prior to stimulation and following stimulation, PBMC were purified from the treated blood using a ficoll density gradient and T-cells were purified using CD3 Beads (Miltenyi) using the manufacturers protocol. Purified cells were lysed in RLTplus (Qiagen) and RNA was extracted from the purified cells using an AllPrepkit (Qiagen). Gene expression was measured using 100 ng of RNA in the Pan-Cancer Immune Profiling kit (NanoString) according to the manufacturer's instructions.

[6] = test system: CD79b and CARD11-mutant ABC-DLBCL xenograft models; assay: ABC-DLBCL xenograft models in vivo
[7] = test system: CD79b-mutant DLBCL and ibrutinib-resistant DLBCL cell lines; assay: Growth of DLBCL cell lines in vitro; format: cell-based; details: ibrutinib-resistant with BTK C481S or CARD11 mutations
[8] = test system: NF-κB (p105/p50) nuclear translocation in CD19-positive B (CLL) cells; assay: NF-κB nuclear translocation in B cells from CLL PBMCs, 30 min anti-IgM; format: cell-based, human; details: 6 hours compound, anti-IgM 30 minutes
Description: Alternatively, B cells can also be activated by beads coated with anti-IgM antibody. After the stimulation, PBMCs were fixed using CytoFix buffer and permeabilized using 0.1% Triton X-100 solution. Cells were then stained with anti-CD19 to label B (CLL) cells, Hoechst 33342 to label nuclei, and anti-p105/p50 to label NF-κB subunit. Samples were analyzed on ImageStreamX to evaluate NF-κB nuclear localization in the CD19-positive cells. […] Statistical significance was determined using Student's t-test in Microsoft Excel.

[9] = Oral bioavailability; details: in vivo
[10] = test system: peripheral blood of CLL patients; assay: Gene expression in whole blood of CLL patients (NanoString Pan-Cancer Immune Profiling); format: cell-based, human; details: 200 μM 24 hours, anti-CD3 and anti-CD28 four hours
Description: as §1

[11] = test system: whole blood of NHL patients; assay: Gene expression signatures in NHL whole blood treated with lymphocyte-stimulating agents; format: cell-based, human; details: PMA-stimulated samples, 100 μM
Description: To obtain a robust gene signature of MALT1 inhibitor activity, whole blood of nine NHL patients which was stimulated with CD3/CD28, PMA/ionomycin, or PBS as a control was tested. Briefly, NHL donor blood was collected in 10 mL sodium heparin tubes and transported in refrigerated state (cold packs). […] Then, aliquots were stimulated with CD3 and CD28 antibodies (1 ug/ml each), PMA (20 ng/ml) and Ionomycin (1 μg/mL), or unstimulated (PBS) for four hours. Following stimulation, the treated blood was transferred into a PAXgene tube (Qiagen; Hilden, Germany) and RNA was extracted using the PAXgene RNA kit.
Gene expression was measured using 100 ng of RNA extracted from the whole blood in the Pan-Cancer Immune Profiling kit (NanoString; Seattle, Wash.) according to the manufacturer's instructions. Gene expression was normalized across samples using NanoString nSolver software. […] Briefly, log 2-scaled, normalized NanoString counts were fit to a linear model (which incorporated the patient of origin) and moderated t-statistics, along with the associated Benjamini-Hochberg (BH) corrected p-values, were computed by empirical Bayes moderation of the standard errors towards a common value.

[12] = test system: CD4+ and CD8+ T cells; assay: CD69 expression on T cells from peripheral whole blood, imaging flow cytometry; format: cell-based, human; details: 200 μM overnight, anti-CD3 and anti-CD28 6 hours
Description: (§2) The solution was mixed by pipetting with a 1 mL pipette. The plates were incubated in a humidified incubator at 37° C. with 5% CO2 for an additional 6 hours.
The next day, blood was treated with anti-CD3 and anti-CD28 stimulatory antibodies for 6 hours as described in Example 1 or left untreated. After treatment with the stimulatory antibodies, the red blood cells were lysed using multi-species lysis buffer, and the white blood cells were stained with anti-CD4 and anti-CD8 antibodies to label T cells and an anti-CD69 antibody to measure early T cell activation. Frequency of CD69-positive T cells (CD4+ and CD8+) was measured by IFC.

[13] = test system: NF-κB (p105/p50) nuclear translocation in CD4 and CD8 positive T cells; assay: NF-kB nuclear translocation in T cells from NHL peripheral whole blood; format: cell-based, human
Description: as §2
The staining solution was prepared by diluting Hoechst 33342 (Thermo Scientific, cat. #62249) to 10 nM and the p50 antibody (Clone 2J10D7; Novus, cat. #NB100-56583C) at 50 μg/mL in FACS buffer. The cells were incubated in the staining solution for 30 minutes at room temperature in the dark. The cells were washed by centrifugation at 1350 rpm for 5 minutes at room temperature, the supernatants were discarded, and the pellets were reconstituted in FACS buffer. The wash step was repeated twice, and the cells were resuspended in PBS at a final concentration of 5-20×10^6 cell/mL in 25 μL of PBS.
The samples were imaged on an AMNIS® […]® X Mark II imaging flow cytometer (MilliporeSigma, Burlington, Mass.) immediately, using 60× magnification, and the data was analyzed in IDEAS software using an internalization module, e.g., to evaluate frequency of CD4+ and CD8+ T cells or CLL cells with nuclear enrichment of p50.
The next day, the mixture samples were treated with anti-CD3 and anti-CD28 stimulatory antibodies following a procedure as that described in Example 1. […] Samples were analyzed on ImageStreamX to evaluate NF-κB nuclear localization in the CD4 and the CD8 positive T cells.

[14] = test system: NF-κB proteins (p50 and RelB) in CLL cells; details: CLL cells treated in vitro; cited from earlier work
[15] = test system: NF-κB target genes (CCND2, BCL2A, CCL3, CCL4, RGS1, and TNF) in CLL cells; details: CLL cells treated in vitro; cited from earlier work

Structure (SMILES): O=C(Nc1ccnc(C(F)(F)F)c1)c1cnn(-c2cccc3c(=O)[nH]ccc23)c1C(F)(F)F [Compound A, 1-(1-oxo-1,2 dihydroisoquinolin-5-yl)-5 (trifluoromethyl)-N-[2 (trifluoromethyl)pyridin-4 yl]-1H-pyrazole-4 carboxamide]
- NF-κB nuclear translocation in B cells [1]: inhibited
- stimulation induced upregulation of CXCL10 [2]: repressed
- binding inhibition of proteases, caspases, protein kinases, and G-protein-coupled receptors [3]: did not show significant binding inhibition
- APOE expression ([4]; purified PBMCs): repressed
- PYCARD expression ([4]; purified PBMCs): repressed
- NF-κB2 expression ([4]; purified T-cells): repressed
- TNFSF10 expression ([4]; purified T-cells): repressed
- stimulation induced upregulation of IL2 [5]: repressed
- efficacy in xenograft models [6]: shown efficacy
- growth of DLBCL cell lines [7]: inhibit growth
- NF-κB nuclear translocation in activated B cells [8]: inhibited
- oral bioavailability [9]: orally bioavailable
- stimulation induced upregulation of CXCL10 [10]: repressed
- genes significantly upregulated [11]: no genes were significantly upregulated
- gene expression at the specified cutoff levels ([11]; genes ICOS, POU2F2, CCR4, CTLA4): downregulated
- surface expression of CD69 on T cells ([12]; NHL blood): significantly inhibited
- surface expression of CD69 on CD4+ and CD8+ T cells ([12]; normal blood): not affected
- NFκB nuclear translocation in T cells ([13]; CD3/CD28 stimulation, dosage dependent): completely blocked
- IC50 ([13]; Homo sapiens, CD8 positive, overnight, CD3/CD28 stimulation 6 h, read-out: IC50, NFκB nuclear translocation in T cells): ~9.5 µM

Structure (SMILES): COCCOc1nc(-c2ccc(Cl)c(Cl)c2)n(-c2ccc(NC(=O)CCl)cc2)n1 [MI-2]
- nuclear translocation of NF-κB proteins [14]: suppress
- expression of six known NF-κB target genes [15]: significantly reduce
